Earlier results as cited in PMC9146896, “Uracil as a Zn-Binding Bioisostere of the Allergic Benzenesulfonamide in the Design of Quinoline–Uracil Hybrids as Anticancer Carbonic Anhydrase Inhibitors” (Pharmaceuticals, 2022).
Values joined by “and” are separate entries in the source; they are usually repeats but may differ in a detail not shown here. Equal values may be shown once.

Legend:
hCA II = hCA II (Homo sapiens, UniProt P00918); conditions: range, quinoline-based sulfonamides; cited from earlier work
hCA I = hCA I (Homo sapiens, UniProt P00915); conditions: range, quinoline-based sulfonamides; cited from earlier work
hCA XII = hCA XII (Homo sapiens, UniProt O43570); design: method as in PMID 34681794; conditions: cited from earlier work
hCA IX = hCA IX (Homo sapiens, UniProt Q16790); design: method as in PMID 34681794; conditions: cited from earlier work

Chain of hCA I (P00915 whole entry): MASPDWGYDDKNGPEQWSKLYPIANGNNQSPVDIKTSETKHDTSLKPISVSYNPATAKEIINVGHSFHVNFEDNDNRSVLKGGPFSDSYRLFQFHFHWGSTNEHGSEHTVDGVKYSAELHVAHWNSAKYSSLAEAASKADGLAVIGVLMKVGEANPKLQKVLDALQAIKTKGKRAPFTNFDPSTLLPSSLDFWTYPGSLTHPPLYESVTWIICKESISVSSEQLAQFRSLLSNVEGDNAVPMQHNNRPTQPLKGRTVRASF
Chain of hCA XII (O43570 25-354): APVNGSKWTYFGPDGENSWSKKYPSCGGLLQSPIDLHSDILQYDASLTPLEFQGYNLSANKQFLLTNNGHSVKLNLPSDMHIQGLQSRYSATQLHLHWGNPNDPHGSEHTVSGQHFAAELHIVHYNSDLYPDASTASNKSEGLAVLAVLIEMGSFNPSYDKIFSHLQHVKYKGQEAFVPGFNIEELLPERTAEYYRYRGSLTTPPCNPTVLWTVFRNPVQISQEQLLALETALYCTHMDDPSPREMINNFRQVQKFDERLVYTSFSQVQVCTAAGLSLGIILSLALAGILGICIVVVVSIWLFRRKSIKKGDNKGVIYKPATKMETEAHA

Compound	Ki (hCA II)	Ki (hCA I)	Ki (hCA XII)	Ki (hCA IX)
CCOC(=O)c1cnc2cc(Cl)c(F)cc2c1Nc1cccc(S(N)(=O)=O)c1 [Compound I]	83 to 3590 nM	966 to 9090 nM and 960 to 9090 nM	–	–
NS(=O)(=O)c1cc(Nc2ccnc3ccc(Cl)cc23)ccc1Cl [Compound II]	–	–	9 nM	18.6 nM and 19 nM
